Test results reported in ChEMBL document CHEMBL1137138, “Synthesis and antiviral activity of P1' arylsulfonamide azacyclic urea HIV protease inhibitors” (Bioorg Med Chem Lett, 2004).

Columns and labels:
[1] = Antiviral activity against HIV virus; format: functional
[2] = Antiviral activity against HIV virus in absence of human serum; format: functional
[3] = Antiviral activity against HIV virus in presence of 50% human serum; format: functional
[4] = biological target: Human immunodeficiency virus type 1 protease (Human immunodeficiency virus 1, UniProt Q72874); experiment: Tested for inhibition of HIV protease

Compound	EC50 [1] [nM]	EC50 [2] [nM]	EC50 [3] [nM]	also measured
Cc1ccc(S(=O)(=O)N2C[C@@H](O)[C@@H](Cc3ccccc3)N(Cc3ccc(O)cc3)C(=O)N2Cc2ccc(O)cc2)cc1	870	–	–	–
COc1ccc(S(=O)(=O)N2C[C@@H](O)[C@@H](Cc3ccccc3)N(Cc3ccc(O)cc3)C(=O)N2Cc2ccc(O)cc2)cc1	750	–	–	–
N#Cc1cccc(S(=O)(=O)N2C[C@@H](O)[C@@H](Cc3ccccc3)N(Cc3ccc(O)cc3)C(=O)N2Cc2ccc(O)cc2)c1	200	–	–	–
CCCCN1C(=O)N(Cc2cccc(C(=N)NO)c2)[C@H](Cc2ccccc2)[C@H](O)CN1S(=O)(=O)c1cccc(C(C)=O)c1	–	150	1090	–
CCCCN1C(=O)N(Cc2cccc(C(=N)NO)c2)[C@H](Cc2ccccc2)[C@H](O)CN1S(=O)(=O)c1cccc(C(C)O)c1 (stereo not given in full)	–	40	850	–
O=C1N(Cc2ccc(O)cc2)[C@H](Cc2ccccc2)[C@H](O)CN(S(=O)(=O)c2cccc([N+](=O)[O-])c2)N1Cc1ccc(O)cc1	810	–	–	–
Cc1ccccc1S(=O)(=O)N1C[C@@H](O)[C@@H](Cc2ccccc2)N(Cc2ccc(O)cc2)C(=O)N1Cc1ccc(O)cc1	230	–	–	–
Cc1cccc(S(=O)(=O)N2C[C@@H](O)[C@@H](Cc3ccccc3)N(Cc3ccc(O)cc3)C(=O)N2Cc2ccc(O)cc2)c1	920	–	–	–
COc1cccc(S(=O)(=O)N2C[C@@H](O)[C@@H](Cc3ccccc3)N(Cc3ccc(O)cc3)C(=O)N2Cc2ccc(O)cc2)c1	460	–	–	–
O=C1N(Cc2ccc(O)cc2)[C@H](Cc2ccccc2)[C@H](O)CN(S(=O)(=O)c2ccccc2)N1Cc1ccc(O)cc1	450	–	–	Ki [4]: 1.37 nM
O=C1N(Cc2ccc(O)cc2)[C@H](Cc2ccccc2)[C@H](O)CN(S(=O)(=O)c2ccc(Cl)c(Cl)c2)N1Cc1ccc(O)cc1	940	–	–	–
O=C1N(Cc2ccc(O)cc2)[C@H](Cc2ccccc2)[C@H](O)CN(S(=O)(=O)c2cccc(Cl)c2Cl)N1Cc1ccc(O)cc1	560	–	–	–
O=C1N(Cc2ccc(O)cc2)[C@H](Cc2ccccc2)[C@H](O)CN(S(=O)(=O)c2cccc(F)c2)N1Cc1ccc(O)cc1	590	–	–	–
CCCCN1C(=O)N(Cc2cccc(C(=N)NO)c2)[C@H](Cc2ccccc2)[C@H](O)CN1S(=O)(=O)c1cccc(N)c1	–	30	2380	–
CCCCN1C(=O)N(Cc2cccc(C(=N)NO)c2)[C@H](Cc2ccccc2)[C@H](O)CN1S(=O)(=O)c1cccc([N+](=O)[O-])c1	–	40	370	–
C=Cc1cccc(S(=O)(=O)N2C[C@@H](O)[C@@H](Cc3ccccc3)N(Cc3cccc(C(=N)NO)c3)C(=O)N2CCCC)c1	–	220	1860	–
O=C1N(Cc2ccc(O)cc2)[C@H](Cc2ccccc2)[C@H](O)CN(S(=O)(=O)c2ccc(C(F)(F)F)cc2)N1Cc1ccc(O)cc1	1100	–	–	–
CCCCN1C(=O)N(Cc2cccc(C(=N)NO)c2)[C@H](Cc2ccccc2)[C@H](O)CN1S(=O)(=O)c1cccc(Br)c1	–	160	2490	–
O=C(c1ccccc1)N1C[C@@H](O)[C@@H](Cc2ccccc2)N(Cc2ccc(O)cc2)C(=O)N1Cc1ccc(O)cc1	–	–	–	Ki [4]: 0.01 nM
O=C1N(Cc2ccc(O)cc2)[C@H](Cc2ccccc2)[C@H](O)CN(S(=O)(=O)c2ccc(Cl)cc2Cl)N1Cc1ccc(O)cc1	3200	–	–	–
O=C1N(Cc2ccc(O)cc2)[C@H](Cc2ccccc2)[C@H](O)CN(S(=O)(=O)c2cc(Cl)cc(Cl)c2)N1Cc1ccc(O)cc1	670	–	–	–
O=C1N(Cc2ccc(O)cc2)[C@H](Cc2ccccc2)[C@H](O)CN(S(=O)(=O)c2ccc(Cl)cc2)N1Cc1ccc(O)cc1	1100	–	–	–
CCCCN1C(=O)N(Cc2cccc(C(=N)NO)c2)[C@H](Cc2ccccc2)[C@H](O)CN1S(=O)(=O)c1cccc(O)c1	–	150	2560	–
CCCCN1C(=O)N(Cc2cccc(C(=N)NO)c2)[C@H](Cc2ccccc2)[C@H](O)CN1S(=O)(=O)c1cccc(OC)c1	–	–	560	–
O=C1N(Cc2ccc(O)cc2)[C@H](Cc2ccccc2)[C@H](O)CN(S(=O)(=O)c2cccc(Br)c2)N1Cc1ccc(O)cc1	420	–	–	–
CCCCN1C(=O)N(Cc2cccc(C(=N)NO)c2)[C@H](Cc2ccccc2)[C@H](O)CN1S(=O)(=O)c1cccc(/C(C)=N\O)c1	–	20	400	–
